The text below walks through data of ChEMBL document CHEMBL3507680, “University of Dundee, Gates Library screen for HepG2 cell viability”.

The nature of the data set: Human HepG2 cell viability assay in 384 well format. Type of data set: toxicity, cell-based. Details: dose 125 nL, time 70.5 hour; concentration not given beside the values. As to conditions: HepG2 cells, read-out: Inhibition.
On to `CN(C)C(=O)COCC1CN(Cc2ccoc2)Cc2ncn(C)c21` (stereo not given), for which the cytotoxicity at 70.5 h is -3.96%.

With `COC(=O)[C@H]1C[C@@H](O)CCN1S(=O)(=O)c1cc(Cl)ccc1OC`, the cytotoxicity at 70.5 h is -11.2%.

As for `CC(=O)OCc1ccc(CN2CCCCCC2c2cc(C)no2)o1` (stereo not given), the cytotoxicity at 70.5 h was found to be 24.7%.

As for `COc1cccc([C@H]2CN(C(=O)c3ccccc3)[C@@H]3CCCN[C@H]23)c1`, the cytotoxicity at 70.5 h was found to be 15.6%.

With `CCCN(CCc1ccccc1)C(=O)c1ccccc1NCC(=O)O`, the cytotoxicity at 70.5 h is -7.74%.

Turning to `Cn1cc(N2Cc3nc(N4CCOCC4)ncc3C2=O)cn1`, the cytotoxicity at 70.5 h is -6.6%.

As for `O=C(c1ccoc1)N1CCO[C@]2(CCC[C@@H]2COCc2ccncc2)C1`, the cytotoxicity at 70.5 h stood at 1.38%.

`Cc1occc1CNc1ncccc1S(N)(=O)=O`: the cytotoxicity at 70.5 h was -3.76%.

As to `NC(=O)NC(=O)CCN1CCCN(c2nccs2)CC1`, the cytotoxicity at 70.5 h was found to be 0.668%.

Consider `Cc1ccc(S(=O)(=O)N2CCN(C)c3ccncc32)cc1F`, for which the cytotoxicity at 70.5 h was -4.45%.

With `CC(C)N(C)Cc1cnc2n1CCN(C(=O)NC1CCCC1)C2`, the cytotoxicity at 70.5 h was -9.47%.

Regarding `CC1(C)CC2(CCO1)NC(=O)c1cc(Br)ccc1-n1nnnc12` (stereo not given), the cytotoxicity at 70.5 h was 1.03%.

`O=c1c2cnc(N3CCCC3)nc2ccn1-c1cccc(C(F)(F)F)c1`: the cytotoxicity at 70.5 h is -5.84%.

Consider `Cc1ccc(CCC(=O)N2CCCC(n3cncn3)C2)c(C)c1` (stereo not given), for which the cytotoxicity at 70.5 h was -3.58%.

In the case of `COc1nn(C)c2c1CCCN(C(=O)c1ccccc1F)C2`, the cytotoxicity at 70.5 h is -95.9%.

With `CCN1CC(NC(=O)Nc2nc(C)n(C(C)C)n2)CC1=O` (stereo not given), the cytotoxicity at 70.5 h was 9.96%.

In the case of `NC(=O)C(NC(=O)COCCc1ccccc1)c1ccccc1F` (stereo not given), the cytotoxicity at 70.5 h is 5.16%.

As to `CNC(=O)CN1C(=O)CCC12CCCN(CCc1ccccc1)C2` (stereo not given), the cytotoxicity at 70.5 h is 27.8%.

In the case of `O=C(c1ccc(S(=O)(=O)NCc2ccon2)cc1)N1CCNCC1`, the cytotoxicity at 70.5 h is -6.36%.

As for `Cc1ccc(C(=O)N2CCN(Cc3nc(C(C)C)no3)CC2)c(=O)[nH]1`, the cytotoxicity at 70.5 h is 1.28%.

`Cc1ccc(F)c(OC2(C(=O)O)CCN(C(=O)N3CCCC3)CC2)c1`: the cytotoxicity at 70.5 h was -9.12%.

Take `CC(CO)NC(=O)c1ccc(NCc2ccc(F)c(F)c2)cc1` (stereo not given): the cytotoxicity at 70.5 h was -0.038%.

Consider `Cc1cnn(CC2CCCCN2CCCS(N)(=O)=O)c1` (stereo not given), for which the cytotoxicity at 70.5 h is 33.5%.

Regarding `CC(C)(NCCOc1ccc(CC#N)cc1)c1nccs1`, the cytotoxicity at 70.5 h is -2.87%.

Take `O=C(Cn1ccc2ccccc21)NCc1ccc(C(=O)O)cc1`: the cytotoxicity at 70.5 h was -10.6%.

For the molecule `CCc1nc(C2CCCN2CCCSC)no1` (stereo not given), the cytotoxicity at 70.5 h was -4.43%.

In the case of `Cn1cc(C2COC3(CCN(C(=O)c4ccccn4)CC3)C2)cn1` (stereo not given), the cytotoxicity at 70.5 h is -12.1%.

`Cc1nc(Nc2ncccn2)cc(C2CCCN2Cc2ncc[nH]2)n1` (stereo not given): the cytotoxicity at 70.5 h was -2.88%.

Regarding `Cc1ccc2c(c1)SCC(=O)N2Cc1noc(C2CCCO2)n1` (stereo not given), the cytotoxicity at 70.5 h was -11.5%.

Consider `Cc1cc2c(=O)n(CCSc3cnn[nH]3)cnc2s1`, for which the cytotoxicity at 70.5 h was -12.3%.

In the case of `CCOc1cc(CN(C)CCCC#N)ccc1OC(F)F`, the cytotoxicity at 70.5 h was -6.87%.

Take `Cc1cc(C)n(CC2CN(Cc3nc(-c4ccco4)no3)CCO2)n1` (stereo not given): the cytotoxicity at 70.5 h was found to be 2.57%.

On to `CC(C)Nc1nc2c(s1)C(=O)CN(C(=O)NCc1ccccc1)C2`, for which the cytotoxicity at 70.5 h is 1.44%.

For `CCc1csc(CCNC(=O)C2CC(=O)N(C(C)C)C2)n1` (stereo not given), the cytotoxicity at 70.5 h stood at 4.82%.

For `Cc1ccc(C)c(CC(=O)NC2(C#N)CCOCC2)c1`, the cytotoxicity at 70.5 h is 1.6%.

In the case of `Cc1cc(C(=O)N2CCC(C)CC2)ccc1NS(C)(=O)=O`, the cytotoxicity at 70.5 h is -4.78%.

Take `CC(C)(O)c1cc(CC2(NCC3CCCCC3)COC2)no1`: the cytotoxicity at 70.5 h is -16.3%.

In the case of `O=C(c1ccc(Cl)s1)N1CCC2(CNS(=O)(=O)c3cnccc3O2)C1` (stereo not given), the cytotoxicity at 70.5 h came to 19.5%.

Turning to `O=C(NCc1ccoc1)Nc1cc(C(F)(F)F)c[nH]c1=O`, the cytotoxicity at 70.5 h came out at 1.11%.

For the molecule `Cc1cccc(C(C(=O)N2CC(c3ccccn3)C2)N(C)C)c1` (stereo not given), the cytotoxicity at 70.5 h is -3.41%.

Turning to `CN(CCc1ccccn1)C(=O)c1ccccc1F`, the cytotoxicity at 70.5 h was -4.18%.

On to `Cc1nc(N2CCN(c3ccccc3)CC2)c2c(n1)c(C)nn2C`, for which the cytotoxicity at 70.5 h was -2.17%.

In the case of `CCn1nc(C)c(NC(=O)c2cc(NC(=O)C3CC3)n(C)n2)c1C`, the cytotoxicity at 70.5 h is -5.29%.

As to `COc1ccc2c(c1)C1(CCN(Cc3cnn(C)c3)CC1)N(C)CC2`, the cytotoxicity at 70.5 h is -0.704%.

In the case of `CC(C)(NS(C)(=O)=O)c1nc(-c2ccc(F)c(F)c2)no1`, the cytotoxicity at 70.5 h was -5.95%.

In the case of `CC(CN1CC[C@@H]2CCCC[C@@H]2C1)n1cnc2ccccc21` (stereo not given in full), the cytotoxicity at 70.5 h amounted to 21.4%.

For the molecule `CN(CC(N)=O)C(=O)c1cn(-c2ccc(Br)cc2)cn1`, the cytotoxicity at 70.5 h was found to be 23.1%.

With `O=c1n(Cc2cccc(C(F)(F)F)c2)nc2ncccn12`, the cytotoxicity at 70.5 h was 24.8%.

As to `Cc1ccc(CN(CCN(C)C)C(=O)Nc2cnn(C)c2)s1`, the cytotoxicity at 70.5 h is -7.54%.

For the molecule `COCCC(=O)N1CCN(CC2CC2)c2nc(C)ccc2C1`, the cytotoxicity at 70.5 h was 9.16%.

Consider `CC(C)c1cc(C(=O)N2CCc3nc(C4CCCN4)ncc3C2)cs1` (stereo not given), for which the cytotoxicity at 70.5 h was 0.261%.

Take `Cc1cc(C2CCC2)nc(NCC(C)(C)N2CCOCC2)n1`: the cytotoxicity at 70.5 h was 15.4%.

Take `Cc1csc(CN(CC2CCCO2)C(=O)c2ccc(C)nc2C)n1` (stereo not given): the cytotoxicity at 70.5 h came to 15.4%.

With `Cc1nc(C)c2c(n1)CCN(C(=O)CC1CC1)CC2`, the cytotoxicity at 70.5 h is -6.2%.

As for `CC(C)NCC1(O)CCCN(CCC2CCCCC2)C1=O` (stereo not given), the cytotoxicity at 70.5 h was -7.37%.

As for `CCOc1ccccc1C(CC(=O)N(C)c1ccccc1)NC(C)=O` (stereo not given), the cytotoxicity at 70.5 h stood at 15.9%.

As for `COc1cccc(-c2nc3c([nH]2)CC(C)(C)CNC3=O)c1OC`, the cytotoxicity at 70.5 h is -9.59%.

In the case of `CC(=O)Nc1cnc(-n2ccnc2)nc1`, the cytotoxicity at 70.5 h was -1.27%.

Turning to `CCc1cnc(CN(C(C)=O)C2CCN(CCc3cnn(C)c3)C2)o1` (stereo not given), the cytotoxicity at 70.5 h came to 2.5%.

Take `Fc1ccc(OCC2CCCO2)c(NCc2cn3cccnc3n2)c1` (stereo not given): the cytotoxicity at 70.5 h came out at 8.09%.

Take `CCN(Cc1ccc(CN(C)C)cc1)C(=O)c1ccncc1O`: the cytotoxicity at 70.5 h was -11.2%.

With `COc1ccc(NC(=O)C2OC(c3cccs3)=NN2C(C)=O)cc1` (stereo not given), the cytotoxicity at 70.5 h was -1.98%.

On to `CNC(=O)NC(=O)C(NCc1cccs1)c1ccccc1` (stereo not given), for which the cytotoxicity at 70.5 h amounted to 34.4%.

Consider `CC(=O)N1CCCC(c2ccc(Br)cn2)C1` (stereo not given), for which the cytotoxicity at 70.5 h was -6.22%.

On to `CCN(Cc1nc(-c2ccco2)no1)Cc1cccc2c1OCO2`, for which the cytotoxicity at 70.5 h was -3.24%.

For `COc1cccc(OCC2CCCN(C(=O)c3ncoc3C3CC3)C2)c1` (stereo not given), the cytotoxicity at 70.5 h is -11.7%.

For the molecule `O=C(Nc1ccncc1)N(CCO)Cc1ccsc1`, the cytotoxicity at 70.5 h was -20%.

On to `Cc1cnn(CC2CCCCN2C(=O)c2ccc3[nH]cnc3c2)c1` (stereo not given), for which the cytotoxicity at 70.5 h is 8.11%.

Take `CC1CN(CC(=O)N2CCCC2)CCN1c1ccc2nncn2n1` (stereo not given): the cytotoxicity at 70.5 h came out at 4.7%.

For the molecule `CCS(=O)(=O)CCN1CCN(C2CCC(C(C)C)CC2)CC1` (stereo not given), the cytotoxicity at 70.5 h stood at 11.5%.

Regarding `Cc1ccc(N2CC[C@H]3OCC[C@@]3(C(=O)N(C)C)C2)nn1`, the cytotoxicity at 70.5 h was -8.34%.

On to `CCc1cc(NCC(O)CN2CCCC2)ncn1` (stereo not given), for which the cytotoxicity at 70.5 h is 21.2%.

Turning to `C[C@@H]1CN(CCC(=O)NCc2ccccc2Cl)CC[C@@]1(O)C1CCC1`, the cytotoxicity at 70.5 h is -0.451%.

As to `Cn1cc(N2CC[C@@H]3CN(Cc4ccncc4)C[C@H]3C2=O)cn1`, the cytotoxicity at 70.5 h turned out to be 2.33%.

With `CN(C)C(=O)CN1CCO[C@H]2CN(Cc3ccoc3)C[C@H]21`, the cytotoxicity at 70.5 h is -4.25%.

For `CCC1CCCCN1C(=O)Cn1cnc(C#N)n1` (stereo not given), the cytotoxicity at 70.5 h is -4.5%.

For `CN1CCCN(c2nccc(-c3c[nH]c4ccc(Br)cc34)n2)CC1`, the cytotoxicity at 70.5 h is 9.19%.

For `COc1ccc2nnc(CCCC(=O)NCCc3ccccc3)n2n1`, the cytotoxicity at 70.5 h is -9.61%.

For `O=C(c1cnccn1)N1CCCC(C2=Nc3ccccc3S(=O)(=O)N2)C1` (stereo not given), the cytotoxicity at 70.5 h is -6.36%.

Take `CCC(CNC(=O)c1cccc(S(=O)(=O)NC)c1)N1CCCC1` (stereo not given): the cytotoxicity at 70.5 h is -2.78%.

As for `Cc1oc(C(=O)Nc2cccc(Cl)c2C)cc1S(N)(=O)=O`, the cytotoxicity at 70.5 h came out at 0.43%.

Turning to `O=C(CC1CCCC1)N1C[C@H](Oc2cccnc2)[C@H]2OCCC[C@H]21`, the cytotoxicity at 70.5 h was -16.9%.

As to `Cc1cn2c(=O)c(-c3ccnc(NC4CCOCC4)n3)cnc2s1`, the cytotoxicity at 70.5 h is -4.12%.

In the case of `Cc1cccnc1CCNC(=O)CC1C(=O)NCCN1CCC(C)C` (stereo not given), the cytotoxicity at 70.5 h amounted to 19.9%.

On to `CC(C)Oc1ccccc1C(=O)NCCc1nncn1C`, for which the cytotoxicity at 70.5 h was -6.83%.

Turning to `O=C(NCCc1nccs1)[C@H](c1ccccc1)n1cnnn1`, the cytotoxicity at 70.5 h was -5.33%.

For `CC(C)NC(=O)Nc1ccc(CNCc2cccc(OC(F)F)c2)cc1`, the cytotoxicity at 70.5 h came out at 29.1%.

`Cc1ncc(CNC(C)(C)CO)c2cc(C(=O)c3ccc(Br)cc3)oc12`: the cytotoxicity at 70.5 h was -14.3%.

Take `COc1ccccc1-c1nnc([C@H]2CCN(C(=O)C3CC3)C2)o1`: the cytotoxicity at 70.5 h is 11.5%.

Regarding `O=C(NCc1cn2cccnc2n1)C1CC(=O)N(Cc2cccnc2)C1` (stereo not given), the cytotoxicity at 70.5 h is 2.43%.

`CCC(NC(=O)C(C)(C)C)c1ccccc1C` (stereo not given): the cytotoxicity at 70.5 h came out at 25.3%.

As to `CC(C)Oc1ccccc1CNC(=O)N(C)CC(F)F`, the cytotoxicity at 70.5 h was -3.01%.

In the case of `COc1ccccc1C(C)NC(=O)N1CCN(Cc2ccc(Br)s2)CC1` (stereo not given), the cytotoxicity at 70.5 h is 5.11%.

As to `Cc1cc(NC(=O)CNc2ccc(Br)cc2F)on1`, the cytotoxicity at 70.5 h is 2.93%.

For `CC(C)c1cc2c(s1)NC(c1ccccc1)NC2=O` (stereo not given), the cytotoxicity at 70.5 h is -12.1%.

Turning to `O=C(NCc1cc(N2CCOCC2)ncn1)c1cccc(CO)n1`, the cytotoxicity at 70.5 h turned out to be 5.15%.

As for `Cc1nc(Nc2ncc(C)s2)cc(C2CCCN2S(C)(=O)=O)n1` (stereo not given), the cytotoxicity at 70.5 h was -13.7%.

In the case of `CS(=O)(=O)c1cc(Cl)cnc1C1CCN(C(=O)C2CC2)CC1`, the cytotoxicity at 70.5 h was -0.478%.

As for `CN(Cc1cscn1)C1CCCN(c2cccnn2)C1` (stereo not given), the cytotoxicity at 70.5 h came to 18%.

For `Cc1cc2nc(C(C)C)cc(N3CCC(O)CC3)n2n1`, the cytotoxicity at 70.5 h was -9.55%.
